Experimental data: US20050009840A1 (SUGEN, INC., priority 2003, published 2005)

Molecular target: T1, HGFR (Homo sapiens, UniProt P08581)
T1 construct: purchased Upstate 14-526
Test: HGFR continuous-coupled spectrophotometric assay
Assay type: biochemical
Conditions: at 1 pM; Table 7, library procedure 42; read-out: % Inhibition (percent c-MET inhibition)

T1 sequence (P08581 974-1390 limits assumed): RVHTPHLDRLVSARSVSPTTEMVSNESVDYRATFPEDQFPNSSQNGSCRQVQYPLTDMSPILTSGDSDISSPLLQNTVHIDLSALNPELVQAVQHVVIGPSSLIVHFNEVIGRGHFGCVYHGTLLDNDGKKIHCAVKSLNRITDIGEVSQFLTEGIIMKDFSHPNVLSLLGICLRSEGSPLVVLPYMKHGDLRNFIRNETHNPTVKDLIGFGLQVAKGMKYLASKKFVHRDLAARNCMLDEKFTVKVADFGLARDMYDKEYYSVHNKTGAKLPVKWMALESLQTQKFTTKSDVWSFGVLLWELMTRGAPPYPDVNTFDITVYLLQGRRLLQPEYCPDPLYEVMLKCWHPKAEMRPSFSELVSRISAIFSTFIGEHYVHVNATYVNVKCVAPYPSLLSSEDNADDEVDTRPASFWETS

| SMILES | inhibition at 1 pM [%] |
| --- | --- |
| Nc1ncc(-c2ccc(C(=O)N3CCC(N4CCCC4)CC3)cc2)cc1OCc1ncc(C(F)(F)F)cc1Cl | 8 |
| Nc1ncc(-c2ccc(C(=O)N3CCC(N4CCCC4)CC3)cc2)cc1OCc1csc2ccc(Cl)cc12 | 37 |
| Nc1ncc(-c2ccc(C(=O)N3CCC(N4CCCC4)CC3)cc2)cc1OCc1ccc(C(=O)NCCN2CCCC2)cc1 | 10 |
| Nc1ncc(-c2ccc(C(=O)N3CCC(N4CCCC4)CC3)cc2)cc1OCc1ccc(C(=O)NCCCN2CCCC2=O)cc1 | 11 |
| Nc1ncc(-c2ccc(C(=O)N3CCC(N4CCCC4)CC3)cc2)cc1OCc1cccc(C(=O)NC2CCN(Cc3ccccc3)CC2)c1 | 13 |
| Nc1ncc(-c2ccc(C(=O)N3CCC(N4CCCC4)CC3)cc2)cc1OCc1ccc(C(=O)NC2CCN(Cc3ccccc3)CC2)cc1 | 11 |
| CCN1CCCC1CNC(=O)c1cccc(COc2cc(-c3ccc(C(=O)N4CCC(N5CCCC5)CC4)cc3)cnc2N)c1 (stereo not drawn) | 10 |
| CCN1CCCC1CNC(=O)c1ccc(COc2cc(-c3ccc(C(=O)N4CCC(N5CCCC5)CC4)cc3)cnc2N)cc1 (stereo not drawn) | 18 |
| CN(C)c1ccc(NC(=O)c2cccc(COc3cc(-c4ccc(C(=O)N5CCC(N6CCCC6)CC5)cc4)cnc3N)c2)cc1 | 23 |
| CCN(CC)c1ccc(NC(=O)c2ccc(COc3cc(-c4ccc(C(=O)N5CCC(N6CCCC6)CC5)cc4)cnc3N)cc2)cc1 | 47 |
| Nc1ncc(-c2ccc(C(=O)N3CCC(N4CCCC4)CC3)cc2)cc1OCc1ccc(C(=O)NCc2cccnc2)cc1 | 15 |
| Nc1ncc(-c2ccc(C(=O)N3CCC(N4CCCC4)CC3)cc2)cc1OCc1ccc(C(=O)NC2CCN(Cc3ccccc3)C2)cc1 (stereo not drawn) | 24 |
| Nc1ncc(-c2ccc(C(=O)N3CCC(N4CCCC4)CC3)cc2)cc1OCc1cccc(C(=O)Nc2ccc(N3CCCCC3)cc2)c1 | 32 |
| CC(C)Oc1cc(C(F)(F)F)nc2ccc(COc3cc(-c4ccc(C(=O)N5CCC(N6CCCC6)CC5)cc4)cnc3N)cc12 | 19 |
| CN(C)CCNC(=O)c1cccc(COc2cc(-c3ccc(C(=O)N4CCC(N5CCCC5)CC4)cc3)cnc2N)c1 | 20 |
| Nc1ncc(-c2ccc(C(=O)N3CCC(N4CCCC4)CC3)cc2)cc1OCc1cc(C(F)(F)F)ccc1Cl | 26 |
| Nc1ncc(-c2ccc(C(=O)N3CCC(N4CCCC4)CC3)cc2)cc1OCc1cc(F)ccc1C(F)(F)F | 26 |
| Nc1ncc(-c2ccc(C(=O)N3CCC(N4CCCC4)CC3)cc2)cc1OCc1ccccc1OC(F)(F)F | 21 |
| CCOC(=O)C1CCN(C(=O)c2ccc(COc3cc(-c4ccc(C(=O)N5CCC(N6CCCC6)CC5)cc4)cnc3N)cc2)CC1 | 16 |
| CCOC(=O)CCNC(=O)c1cccc(COc2cc(-c3ccc(C(=O)N4CCC(N5CCCC5)CC4)cc3)cnc2N)c1 | 14 |
| COC(=O)c1ccc(COc2cc(-c3ccc(C(=O)N4CCC(N5CCCC5)CC4)cc3)cnc2N)c(OC)c1 | 15 |
| Nc1ncc(-c2ccc(C(=O)N3CCC(N4CCCC4)CC3)cc2)cc1OCc1ccc(S(=O)(=O)Nc2ccc(F)cc2)cc1 | 15 |
| Nc1ncc(-c2ccc(C(=O)N3CCC(N4CCCC4)CC3)cc2)cc1OCc1cscn1 | 12 |
| Nc1ncc(-c2ccc(C(=O)N3CCC(N4CCCC4)CC3)cc2)cc1OCc1cccc(CO)n1 | 15 |
| Nc1ncc(-c2ccc(C(=O)N3CCC(N4CCCC4)CC3)cc2)cc1OCc1ccc(C(F)(F)F)nc1 | 13 |
| Nc1ncc(-c2ccc(C(=O)N3CCC(N4CCCC4)CC3)cc2)cc1OCc1cn2ccccc2n1 | 11 |
| CCOC(=O)CCNS(=O)(=O)c1ccc(COc2cc(-c3ccc(C(=O)N4CCC(N5CCCC5)CC4)cc3)cnc2N)cc1 | 15 |

| SMILES | inhibition at 1 pM [%] |
| --- | --- |
| Nc1ncc(-c2ccc(C(=O)N3CCC(N4CCCC4)CC3)cc2)cc1OCc1ccc(C(=O)c2ccccc2)cc1 | 31 |
| Cc1cc(-c2onc(C)c2COc2cc(-c3ccc(C(=O)N4CCC(N5CCCC5)CC4)cc3)cnc2N)no1 | 22 |
| Cc1nc2ccc(COc3cc(-c4ccc(C(=O)N5CCC(N6CCCC6)CC5)cc4)cnc3N)cc2c(=O)[nH]1 | 12 |
| Nc1ncc(-c2ccc(C(=O)N3CCC(N4CCCC4)CC3)cc2)cc1OCc1ccc(S(=O)(=O)N2CCOCC2)cc1 | 14 |
| COCOc1ccc(S(=O)(=O)c2ccc(COc3cc(-c4ccc(C(=O)N5CCC(N6CCCC6)CC5)cc4)cnc3N)cc2)cc1 | 18 |
| Nc1ncc(-c2ccc(C(=O)N3CCC(N4CCCC4)CC3)cc2)cc1OCc1ccc(S(=O)(=O)c2ccc(F)cc2)cc1 | 13 |
| Cc1nc2scc(COc3cc(-c4ccc(C(=O)N5CCC(N6CCCC6)CC5)cc4)cnc3N)c2c(=O)[nH]1 | 10 |
| Nc1ncc(-c2ccc(C(=O)N3CCC(N4CCCC4)CC3)cc2)cc1OCc1cncc2ccccc12 | 9 |
| Nc1ncc(-c2ccc(C(=O)N3CCC(N4CCCC4)CC3)cc2)cc1OCc1c(F)ccc(F)c1Cl | 50 |
| Cc1ccc(COc2cc(-c3ccc(C(=O)N4CCC(N5CCCC5)CC4)cc3)cnc2N)c(F)c1F | 39 |
| Cc1ccc(F)c(COc2cc(-c3ccc(C(=O)N4CCC(N5CCCC5)CC4)cc3)cnc2N)c1F | 51 |
| Nc1ncc(-c2ccc(C(=O)N3CCC(N4CCCC4)CC3)cc2)cc1OCc1cccnc1 | 17 |
| Nc1ncc(-c2ccc(C(=O)N3CCC(N4CCCC4)CC3)cc2)cc1OCc1ccccn1 | 16 |
| COc1c(C)cnc(COc2cc(-c3ccc(C(=O)N4CCC(N5CCCC5)CC4)cc3)cnc2N)c1C | 20 |
| Nc1ncc(-c2ccc(C(=O)N3CCC(N4CCCC4)CC3)cc2)cc1OCc1cn2cccnc2n1 | 16 |
| Cc1cc(C)n2nc(COc3cc(-c4ccc(C(=O)N5CCC(N6CCCC6)CC5)cc4)cnc3N)nc2n1 | 18 |
| Nc1ncc(-c2ccc(C(=O)N3CCC(N4CCCC4)CC3)cc2)cc1OCc1cccc2cccnc12 | 22 |
| Cn1nc(-c2ccccc2)c(COc2cc(-c3ccc(C(=O)N4CCC(N5CCCC5)CC4)cc3)cnc2N)c1Cl | 63 |
| Nc1ncc(-c2ccc(C(=O)N3CCC(N4CCCC4)CC3)cc2)cc1OCc1nc2ccccc2s1 | 17 |
| COC(=O)Nc1cc(COc2cc(-c3ccc(C(=O)N4CCC(N5CCCC5)CC4)cc3)cnc2N)on1 | 18 |
| Cn1ccnc1COc1cc(-c2ccc(C(=O)N3CCC(N4CCCC4)CC3)cc2)cnc1N | 14 |
| Cc1nc(COc2cc(-c3ccc(C(=O)N4CCC(N5CCCC5)CC4)cc3)cnc2N)n(C)n1 | 14 |
| Nc1ncc(-c2ccc(C(=O)N3CCC(N4CCCC4)CC3)cc2)cc1OCc1nc2cc(C(F)(F)F)ccc2s1 | 34 |
| Cc1cc(=O)n2nc(COc3cc(-c4ccc(C(=O)N5CCC(N6CCCC6)CC5)cc4)cnc3N)nc2[nH]1 | 18 |
| Nc1ncc(-c2ccc(C(=O)N3CCC(N4CCCC4)CC3)cc2)cc1OCc1nnnn1Cc1ccccc1 | 19 |
| Nc1ncc(-c2ccc(C(=O)N3CCC(N4CCCC4)CC3)cc2)cc1OCc1nc2ncc(Cl)cc2[nH]1 | 16 |

Now from value to compound:

| inhibition at 1 pM [%] | SMILES |
| --- | --- |
| 10 | COc1ccc(-c2nc(COc3cc(-c4ccc(C(=O)N5CCC(N6CCCC6)CC5)cc4)cnc3N)no2)cc1 |
| 36 | CC(C)(C)c1ccc(-c2noc(COc3cc(-c4ccc(C(=O)N5CCC(N6CCCC6)CC5)cc4)cnc3N)n2)cc1 |
| 6 | Cc1noc(C)c1-c1nc(COc2cc(-c3ccc(C(=O)N4CCC(N5CCCC5)CC4)cc3)cnc2N)no1 |
| 8 | COc1ccccc1-c1nc(COc2cc(-c3ccc(C(=O)N4CCC(N5CCCC5)CC4)cc3)cnc2N)no1 |
| 9 | Nc1ncc(-c2ccc(C(=O)N3CCC(N4CCCC4)CC3)cc2)cc1OCc1csc(-c2ccc(Cl)cc2)n1 |
| 21 | Nc1ncc(-c2ccc(C(=O)N3CCC(N4CCCC4)CC3)cc2)cc1OCc1csc(-c2ccc(C(F)(F)F)cc2)n1 |
| 59 | Nc1ncc(-c2ccc(C(=O)N3CCC(N4CCCC4)CC3)cc2)cc1OCc1ccc2ccccc2c1Br |
| 17 | Nc1ncc(-c2ccc(C(=O)N3CCC(N4CCCC4)CC3)cc2)cc1OCc1ccc(-c2ccnc(Br)n2)cc1 |
| 13 | Nc1ncc(-c2ccc(C(=O)N3CCC(N4CCCC4)CC3)cc2)cc1OCc1cccc(-c2ccnc(Br)n2)c1 |
| 33 | Nc1ncc(-c2ccc(C(=O)N3CCC(N4CCCC4)CC3)cc2)cc1OCc1ccc(-c2cnc(Br)nc2)cc1 |
| 17 | COc1cc(COc2cc(-c3ccc(C(=O)N4CCC(N5CCCC5)CC4)cc3)cnc2N)cc(OC)c1 |
| 23 | COc1cccc(COc2cc(-c3ccc(C(=O)N4CCC(N5CCCC5)CC4)cc3)cnc2N)c1OC |
| 13 | COc1ccc2sc(COc3cc(-c4ccc(C(=O)N5CCC(N6CCCC6)CC5)cc4)cnc3N)cc2c1 |
| 10 | Cn1c(COc2cc(-c3ccc(C(=O)N4CCC(N5CCCC5)CC4)cc3)cnc2N)nc2ccccc21 |
| 9 | Nc1ncc(-c2ccc(C(=O)N3CCC(N4CCCC4)CC3)cc2)cc1OCc1nc(-c2ccccn2)no1 |
| 27 | Cc1cc(COc2cc(-c3ccc(C(=O)N4CCC(N5CCCC5)CC4)cc3)cnc2N)ccc1F |
| 29 | Cc1ccc(F)cc1COc1cc(-c2ccc(C(=O)N3CCC(N4CCCC4)CC3)cc2)cnc1N |
| 24 | Nc1ncc(-c2ccc(C(=O)N3CCC(N4CCCC4)CC3)cc2)cc1OCc1cccc(Br)c1 |
| 15 | Nc1ncc(-c2ccc(C(=O)N3CCC(N4CCCC4)CC3)cc2)cc1OCc1nc(N)c2ccccc2n1 |
| 19 | Cc1onc(-c2ccccc2)c1COc1cc(-c2ccc(C(=O)N3CCC(N4CCCC4)CC3)cc2)cnc1N |
| 18 | Cc1ccc(-c2nnc(COc3cc(-c4ccc(C(=O)N5CCC(N6CCCC6)CC5)cc4)cnc3N)o2)cc1 |
| 23 | Nc1ncc(-c2ccc(C(=O)N3CCC(N4CCCC4)CC3)cc2)cc1OCc1cc(-c2ccccc2)no1 |
| 16 | Cc1cc(COc2cc(-c3ccc(C(=O)N4CCC(N5CCCC5)CC4)cc3)cnc2N)no1 |
| 24 | Nc1ncc(-c2ccc(C(=O)N3CCC(N4CCCC4)CC3)cc2)cc1OCc1ccc2ccc(Cl)cc2n1 |
| 19 | Cc1oc(-c2ccccc2)nc1COc1cc(-c2ccc(C(=O)N3CCC(N4CCCC4)CC3)cc2)cnc1N |
